From patent US20100197789A1, “ANTI-OBESITY AGENT AND USE THEREOF” (National University Corporation Nagoya University, priority 2006, published 2010)

Legend:
Type in all cases: in vivo, mouse
DIO mice [1] = assay: Food intake amount and body weight, 5 week-continuous oral administration, diet-induced obese (DIO) mice; settings: (±)-baclofen 5 mg/kg/day, SKF97541 0.3 mg/kg/day, 3-APPA 5 mg/kg/day
Description: (§1) 5 week-old male C57BL/6N mice (body weight 17 to 20 g, CLEA Japan, Inc.) were purchased and individually fed in tip cages. To the mice, normal pellet diet (CE-2) was administered under free water intake and free food intake. A body weight and a food intake amount over 24 hours were measured every day from the start of feeding. On day 3 after the start of feeding, blood was taken from an orbit after 6 hour-fasting and a blood glucose level and a blood insulin concentration were measured. The mice were divided into a control group and a baclofen treated group (10 mice per each group) so that a body weight, a 24 hour-food intake amount, a blood glucose level, and a blood insulin concentration were equal, and diet induced-obesity (DIO) was started to be induced by administration of high fat diet (High Fat Diet 32, energy fat ratio 60%, CLEA Japan, Inc.) (DIO mice). At the same time as the start of administering the high fat diet, (±)-baclofen was dissolved in drinking water and 5 week-continuous oral administration was started in a dosage of 5 mg per 1 kg of a body weight in 1 day (5 mg/kg/day). A food intake amount and a body weight were measured over time during the 5 week-administration period. (±)-baclofen (5 mg/kg/day) was orally administered also to C57BL/6N mice (lean mice) that are non-obese mice to which normal diet was administered in the same manner as described above, and a food intake amount and a body weight were measured over time.
(§2) 5 week-old male C57BL/6N mice (body weight 17 to 20 g, CLEA Japan, Inc.) were purchased and individually fed in tip cages. Normal pellet diet (CE-2) was administered to the mice under free water intake and free food intake. A body weight and a food intake amount over 24 hours were measured every day from the start of feeding. On day 3 after the start of feeding, blood was taken from an orbit after 6 hour-fasting and a blood glucose level and a blood insulin concentration were measured. The mice were divided into a control group, an SKF97541 treated group and a 3-APPA treated group (10 mice per each group) so that a body weight, a 24 hour-food intake amount, a blood glucose level, and a blood insulin concentration were equal, and diet induced-obesity (DIO) was started to be induced by administration of high fat diet (High Fat Diet 32, energy fat ratio 60%, CLEA Japan, Inc.) (DIO mice). At the same time as the start of administering the high fat diet, SKF97541 (0.3 mg/kg/day) or 3-APPA (5 mg/kg/day) was dissolved in drinking water and 5 week-continuous oral administration was started. A food intake amount and a body weight were measured over time during the 5 week-administration period. SKF97541 (0.3 mg/kg/day) or 3-APPA (5 mg/kg/day) was orally administered also to C57BL/6N mice (lean mice) to which normal diet was administered in the same manner as described above, and a food intake amount and a body weight were measured over time.

POMC mRNA = assay: In situ hybridization, POMC mRNA in hypothalamic arcuate nucleus, db/db mice; settings: after 5 weeks, 1.1 and 2.7 mg/dl in drinking water, NIH image quantitation
Description: (§3) 5 week-old male C57BL/KsJ-db/db mice (db/db mice: body weight 19 to 25 g, Japan SLC, Inc.) were purchased and individually fed in tip cages. For the db/db mice, normal pellet diet (CE-2) was administered under free water intake and free food intake. A body weight and a food intake amount over 24 hours were measured every day from the start of feeding. On day 3 after the start of feeding, blood was taken from an orbit after 6 hour-fasting and a blood glucose level and a blood insulin concentration were measured. The db/db mice were divided into three groups (10 mice per each group) so that a body weight, a 24 hour-food intake amount, a blood glucose level, and a blood insulin concentration were equal, and defined to be a control group, a low concentration baclofen treated group, and a high concentration baclofen treated group. […] A food intake amount and a body weight were measured over time during the period of 5 week-administration of (±)-baclofen, blood was taken after the end of the 5-week administration, and the db/db mice were sacrificed by cervical luxation. […] The epididymal white adipose tissues and subcutaneous white adipose tissues were measured in weights, and then fixed in 4% formaldehyde and preserved at 4° C. […]

lean mice = assay: Food intake amount and body weight, 5 week-continuous oral administration, non-obese lean mice; settings: lean mice (normal diet); oral 5 weeks; (±)-baclofen 5 mg/kg/day, SKF97541 0.3 mg/kg/day, 3-APPA 5 mg/kg/day
Description: as §1, §2

DIO mice [2] = assay: Rectal temperature, oxygen consumption and motor activity, DIO mice
Description: (±)-baclofen was orally administered to db/db mice and DIO mice for 5 weeks and rectal temperatures were measured 5 weeks after the start of the administration, and oxygen consumptions and motor activity were measured by using a small animal metabolism measuring system (model MK-5000: Muromachi Kikai Co., Ltd.).

db/db mice = assay: Blood glucose level, HbA1c and plasma hormone concentrations after 5-week administration, db/db mice; settings: 1.1 and 2.7 mg/dl in drinking water
Description: 5 week-old male C57BL/KsJ-db/db mice (db/db mice: body weight 19 to 25 g, Japan SLC, Inc.) were purchased and individually fed in tip cages. For the db/db mice, normal pellet diet (CE-2) was administered under free water intake and free food intake. A body weight and a food intake amount over 24 hours were measured every day from the start of feeding. On day 3 after the start of feeding, blood was taken from an orbit after 6 hour-fasting and a blood glucose level and a blood insulin concentration were measured. The db/db mice were divided into three groups (10 mice per each group) so that a body weight, a 24 hour-food intake amount, a blood glucose level, and a blood insulin concentration were equal, and defined to be a control group, a low concentration baclofen treated group, and a high concentration baclofen treated group. After division into the groups, from day 5 after the start of feeding, (±)-baclofen was dissolved in drinking water and 5 week-continuous oral administration to the baclofen treated groups was started. (±)-baclofen was dissolved in drinking water at a concentration of 1.1 mg/dl in the low concentration treated group and at a concentration of 2.7 mg/dl in the high concentration treated group. A food intake amount and a body weight were measured over time during the period of 5 week-administration of (±)-baclofen, blood was taken after the end of the 5-week administration, and the db/db mice were sacrificed by cervical luxation. Brains, epididymal white adipose tissues, subcutaneous white adipose tissues and brown adipose tissues were surgically removed. The brains and brown adipose tissues were frozen in dry ice and liquid nitrogen immediately after the removal and then preserved at −80° C. The epididymal white adipose tissues and subcutaneous white adipose tissues were measured in weights, and then fixed in 4% formaldehyde and preserved at 4° C.
The blood glucose level was measured by a glucose analyzer Antisense (HORIBA, Ltd.) promptly after taking blood from an orbit. HbA1c was measured by a glycohemoglobin analyzer HLC-723 GHbV (manufactured by TOSOH Corporation) after preserving blood at −80° C.
After taking blood from an orbit by using a hematocrit tube coated with heparin, blood was centrifuged at 3500 rpm at 4° C. for 15 minutes, and plasma was preserved at −80° C. The plasma concentrations of insulin, leptin and adiponectin were measured by the ELISA method (levis insulin kit (mouse): Shibayagi Co., Ltd., Morinaga Leptin assay kit: Morinaga Institute of Biological Science, Inc., Mouse/rat adiponectin ELISA kit: OTSUKA Pharmaceutical Co., Ltd.).

NPY mRNA = assay: In situ hybridization, NPY mRNA in hypothalamic arcuate nucleus, db/db mice; settings: after 5 weeks, 1.1 and 2.7 mg/dl in drinking water, NIH image quantitation
Description: as §3

[3] = DIO mice (high fat diet), oral in drinking water 5 weeks
[4] = DIO mice, continued until 5 weeks

## NCC(CC(=O)O)c1ccc(Cl)cc1 (racemic) [(±)-baclofen, (RS)-4-amino-3-(4-chlorophenyl)butanoic acid]
DIO mice [1]; [3]
  body weight increase: significantly suppressed
  food intake amount: significantly suppressed
DIO mice [1]; [4]
  time after start of administration from which body weight increase suppression was significant: 1 week
  time after start of administration from which food intake suppression was significant: 1 week
POMC mRNA
  expression of POMC mRNA in the hypothalamic arcuate nucleus: significantly enhanced
Lean mice
  body weight: did not give significant effects
  food intake amount: did not give significant effects
DIO mice [2]; (±)-baclofen oral 5 weeks
  oxygen consumption: significantly increased
DIO mice [2]; (±)-baclofen oral, 5 weeks after start of administration
  body temperature (rectal): significantly raised
db/db mice; after 5 week-administration
  blood adiponectin concentration: Significant increases
  blood leptin concentration: Significant increases
  fasting blood insulin level: No change
db/db mice; after administration for 5 weeks
  HbA1c value: Significant decreases
db/db mice; fasting for 6 hours, after 5 week-administration
  fasting blood glucose level: significant suppression
NPY mRNA
  expression of NPY mRNA in the hypothalamic arcuate nucleus: significantly suppressed
